Patent US20230201134A1, “COMPOSITIONS FOR THE MANAGEMENT OF DEMYELINATING DISORDERS” (priority 2021, published 2023)

Columns and labels:
Assay type in all cases: in vivo, mouse
C56BL/6 J mice [1] = test: Motor coordination and learning: Rotarod test in demyelinated mice; details: Rotarod 16 rpm, 60 s, Withaferin A 25 mg/kg, BDMC 12.5 mg/kg, combination 25 + 12.5 mg/kg, demyelinated control 3/10
Description: (§1) The Eight-week-old male C56BL/6 J mice were selected and randomized into ten animals in each group (Table 1). Demyelination was induced by 0.3% cuprizone in combination with rapamycin (Hilary H S, Kathryn K B, Daniela C P, Priya N, Wendy B M. A New Model of Cuprizone-Mediated Demyelination/Remyelination. Am Society Neurochem. 2014: 1-16). Briefly, groups undergo demyelination by feeding on a diet containing 0.3% cuprizone mixed into Rodent Diet. These mice received additionally intra-peritoneal rapamycin injections 5 days a week with a vehicle solution.
(§2) After 8 weeks of treatment, all cuprizone feedings and all injections of rapamycin was discontinued. The animals were subjected to behavioral analysis and at end of study, brain samples and serum samples were collected for estimation of Molecular and protein biomarkers by ELISA and Immunohistochemistry of brain was assessed for Demyelination/Remyelination.
Motor coordination and balance were evaluated in a Rotarod apparatus which consists of a motor-driven rotating rod whose speed can be adjusted. All mice were evaluated on the Rotarod three times a day for two consecutive days, with the rotation set at 15 to 16 revolutions per minute (rpm) (Rozas, G.; Guerra, M. J.; Labandeira Garcia, J. L. An automated Rotarod method for quantitative drug-free evaluation of overall motor deficits in rat models of Parkinsonism. Brain Res. Protoc. 1997, 2, 75-84). To test the performance, the mice were placed on the rotating cylinder at an angle of 45 with an initial rotation speed of 16 rpm, and were allowed to run for 60 s. The trial was repeated after 5-10 min. The falls and flips (when the animal hangs on to the cylinder and continues all the way around) were recorded within 60 s of each trial.

C-reactive Protein (CRP) = test: C-reactive protein (ELISA), cuprizone/rapamycin demyelination model; details: compared to the demyelination control, Withaferin A 25 mg/kg, BDMC 12.5 mg/kg, combination 37.5 mg/kg, orally once per day
Description: as §1, §2
(§3) Withaferin A or BDMC were administered orally once per day to mouse, for 8 weeks after treatment with Cuprizone and Rapamycin (Table 1). The dose response of BDMC or Withaferin was assessed by measuring concentration of biomarkers, Myelin Oligodendrocyte Glycoprotein (MOG) (FIG. 1) Brain Derived Neurotrophic Factor (BDNF) (FIG. 2), in serum. […]

[2] = test system: Platelet Derived Growth Factor Receptor alpha (PDGFRa); test: PDGFRa in brain tissue homogenate (ELISA), cuprizone/rapamycin demyelination model; details: compared to the demyelination control, Withaferin A 25 mg/kg, BDMC 12.5 mg/kg, combination 37.5 mg/kg, orally once per day
Description: as §1, §2, §3

[3] = test system: Chondroitin Sulfate Proteoglycan 4 (NG2); test: NG2 in brain tissue homogenate (ELISA), cuprizone/rapamycin demyelination model; details: compared to the demyelination control, Withaferin A 25 mg/kg, BDMC 12.5 mg/kg, combination 37.5 mg/kg, orally once per day
Description: as §1, §2, §3

[4] = test system: Amphoterin-induced protein 3 (AMIGO3); test: AMIGO3 in brain tissue homogenate (ELISA), cuprizone/rapamycin demyelination model; details: compared to the demyelination control, Withaferin A 25 mg/kg, BDMC 12.5 mg/kg, combination 37.5 mg/kg, orally once per day
Description: as §1, §2, §3

[5] = test system: Myelin Oligodendrocyte Glycoprotein (MOG), Brain Derived Neurotrophic Factor (BDNF); test: Dose response study, MOG and BDNF in serum; details: orally once per day for 8 weeks; from serum MOG and BDNF dose response
Description: as §1
Withaferin A or BDMC were administered orally once per day to mouse, for 8 weeks after treatment with Cuprizone and Rapamycin (Table 1). The dose response of BDMC or Withaferin was assessed by measuring concentration of biomarkers, Myelin Oligodendrocyte Glycoprotein (MOG) (FIG. 1) Brain Derived Neurotrophic Factor (BDNF) (FIG. 2), in serum.

[6] = test system: Transient receptor potential ankyrin 1 (TRPA1); test: TRPA1 in brain tissue homogenate (ELISA), cuprizone/rapamycin demyelination model; details: compared to the demyelination control, Withaferin A 25 mg/kg, BDMC 12.5 mg/kg, combination 37.5 mg/kg, orally once per day
Description: as §1, §2, §3

[7] = test system: CXC chemokine receptor 2 (CXCR2); test: CXCR2 in brain tissue homogenate (ELISA), cuprizone/rapamycin demyelination model; details: compared to the demyelination control, Withaferin A 25 mg/kg, BDMC 12.5 mg/kg, combination 37.5 mg/kg, orally once per day
Description: as §1, §2, §3

[8] = test system: Myelin basic protein (MBP); test: Myelin basic protein in brain tissue homogenate (ELISA), cuprizone/rapamycin demyelination model; details: compared to the demyelination control, Withaferin A 25 mg/kg, BDMC 12.5 mg/kg, combination 37.5 mg/kg, orally once per day
Description: as §1, §2, §3

C56BL/6 J mice [9] = test: Locomotor activity test (Actophotometer) in demyelinated mice; details: 5 minutes, p.o., Mean ± S.E., 10 animals; for locomotor activity score, 3 hr after treatment: demyelinated control 148 ± 14.48; for locomotor activity score, 2 hr after treatment: demyelinated control 158 ± 14.02; for locomotor activity score, 1 hr after treatment: demyelinated control 170 ± 20.18
Description: as §1, §2
Actophotometer (Activity cage) is designed to study the spontaneous or induced or locomotor activity in small animals like mice or rats. In this apparatus, the Optical sensors and emitters are present to record the horizontal movements of the animals on a six-digit digital counter display. Each animal was placed in Actophotometer for 5 minutes and basal activity score was recorded for all animals. Each animal was treated with respective drugs and activity score was recorded after 1, 2, and 3 hours.

C56BL/6 J mice [10] = test: Grip strength test in demyelinated mice; details: forelimb strength, compared to the demyelinated control; Withaferin A 25 mg/kg, BDMC 12.5 mg/kg, combination 37.5 mg/kg
Description: as §1, §2

C56BL/6 J mice [11] = test: Immunohistochemistry of brain for demyelination/remyelination; details: GST-π staining; Withaferin A 25 mg/kg, BDMC 12.5 mg/kg, combination 37.5 mg/kg; versus demyelinated control
Description: as §1, §2

| SMILES | No. of mice which stayed on rota rod/total no. of animals (C56BL/6 J mice [1]) | down regulation of C-reactive Protein (CRP) inflammatory marker (C-reactive Protein (CRP)) [%] | upregulation of PDGFRa [2] [%] | upregulation of NG2 [3] [%] | down regulation of AMIGO3 inflammatory marker [4] [%] | optimum effective dose [5] [mg/kg] | down regulation of TRPA1 inflammatory marker [6] [%] | down regulation of CXC chemokine receptor 2 (CXCR2) inflammatory marker [7] [%] | proliferation of Myelin basic protein (MBP) [8] [%] | locomotor activity score, 3 hr after treatment (C56BL/6 J mice [9]) | locomotor activity score, 2 hr after treatment (C56BL/6 J mice [9]) | locomotor activity score, 1 hr after treatment (C56BL/6 J mice [9]) | improvement in the grip strength (C56BL/6 J mice [10]) [%] | No. of mice which stayed on rota rod/total no. of animals (C56BL/6 J mice [1]; listed as Withaferin) | immunohistochemistry findings of cerebellar cortical layer (C56BL/6 J mice [11]) |
| --- | --- | --- | --- | --- | --- | --- | --- | --- | --- | --- | --- | --- | --- | --- | --- |
| O=C(/C=C/c1ccc(O)cc1)CC(=O)/C=C/c1ccc(O)cc1 [BDMC, Bisdemethoxycurcumin] | 5/10 | 35 | 73 | 90 | 27 | 12.5 | 17 | 35 | 122 | 190 ± 7.35 | 200 ± 10.70 | 220 ± 21.11 | 37.5 |  |  |
| CC1=C(CO)C(=O)O[C@@H]([C@@H](C)[C@H]2CC[C@H]3[C@@H]4C[C@H]5O[C@]56[C@@H](O)C=CC(=O)[C@]6(C)[C@H]4CC[C@]23C)C1 [Withaferin A] | 5 out of 10 | 32 | 22 | 30 | 36 | 25 | 43 | 32 | 64 | 200 ± 9.01 | 210 ± 17.23 | 240 ± 17.22 | 25 | 5/10 | few degenerated Purkinje cells with pyknotic cell bodies and inconspicuous dendritic processes |
